Literature values in patent US20110118355A1, “TREATMENT OF MIGRAINE HEADACHES USING ANTIESTROGENS” (priority 2007, published 2011).

Conditions: one person, no aura, headache accompanied by fever; Letter to the Editor, Headache 32:315 (1992)

In the case of `CCN(CC)CCOc1ccc(C(=C(Cl)c2ccccc2)c2ccccc2)cc1` [clomiphene], the “clinical benefit in headaches diagnosed as common migraine” value is listed as “benefited”.
